Measured values reported in patent US20130023051A1, “TECHNIQUES FOR TRANSFECTING PROTOPLASTS” (Keygene N.V., priority 2009, published 2013).

Test system: mutated EGFP (mEGFP) in BY-2 protoplasts
Test: meGFP restoration in BY-2 protoplasts by oligonucleotide-mediated targeted gene repair (Example 3)
Assay type: cell-based, tobacco
Excerpt: A tobacco Bright Yellow 2 cell suspension containing a non-functional EGFP gene was produced by introducing a point mutation in the chromophore region of the protein resulting in the formation of a premature stop codon. This line is used as reporter system to test the influence of various parameters on the repair of the EGFP gene by oligonucleotide-mediated targeted gene repair.
Five mL of a 7 d-old tobacco Bright Yellow 2 (BY-2) cell suspension culture weekly maintained in BY-2 culture medium (Nagata et al. 1999 Method Cell Sci) are transferred to a 50 mL Erlenmeyer flask containing 45 mL of BY-2 culture medium supplemented with 2 mM hydroxyurea. […] Live protoplasts are harvested and their density evaluated using a haemocytometer. […]
Tobacco protoplasts transfection is performed as for tomato protoplasts. […] To culture medium contained (per liter, pH 5.7) 950 mg KNO3, 825 mg NH4NO3, 220 mg CaCl2.2H2O, 185 mg MgSO4.7H2O, 85 mg KH2PO4, 27.85 mg FeSO4.7H2O, 37.25 mg Na2EDTA.2H2O, the micro-nutrients according to Heller's medium (Heller, R. 1953 Ann Sci Nat Bot Biol Veg), vitamins according to Morel and Wetmore's medium (Morel, G. and R. H. Wetmore 1951 Amer. J. Bot.), 2% (w/v) sucrose, 3 mg naphthalene acetic acid, 1 mg 6-benzylaminopurine and a quantity of mannitol to bring the osmolality to 540 mOsm·kg^−1 and transferred to a 35 mm Petri dish. […]

repairing oligonucleotide: SEQ ID NO 8, T*G*A*A*CAGCTCCTCGCCCTTGC*T*C*A*C, phosphorothioate ends, one mismatch with the targeted sequence (DNA TGAACAGCTCCTCGCCCTTGCTCAC; DNA, linkages s4 o16 s4 (s phosphorothioate, o phosphodiester), methylation of C not given here)
GFP positive protoplasts after 24 hours (/10^6) (label = Day 1 / Day 2 treatment, oligonucleotide transfected at Day 2, dichlobenil 2 mg·L^−1 overnight, 2 mM hydroxyurea): 0 /10^6
GFP positive protoplasts after 24 hours (/10^6) (oligonucleotide transfected at Day 1, nothing at Day 2, 2 mM hydroxyurea): 0 /10^6
